Key:
[1] = tested on: Huh-7; assay: Hepatoprotective activity against CCL4-induced mouse model in human Huh-7 cells assessed as decrease in ALT level at 100 ug/mL; type: functional; details: dose 100 µg/ml
[2] = tested on: Hepatocyte; assay: Hepatoprotective activity against D-GaIN/TNFalpha-induced cell death in mouse hepatocyte at 100 uM; type: functional, cell-based
[3] = tested on: Hepatocyte; assay: Hepatoprotective activity against D-GaIN/TNFalpha-induced cell death in mouse hepatocytes at 50 uM assessed as inhibition of cell death relative to control; type: functional; parameters: scale not given: the % may be the effect or the level left
[4] = tested on: L02; assay: Protection against D-GalN-induced cell damage in human L02 cells […] assessed as reduction in cell viability […]; type: functional, cell-based
[5] = species on record: Mus musculus; assay: Hepatoprotective activity against D-GaIN-induced liver injury mouse model assessed as cell death with increasing cell survival rates at 10 uM relative to control; type: functional
[6] = tested on: Rattus norvegicus; assay: Hepatoprotective activity in GaIN-induced rat model of liver injury assessed as reduction in ALT level at 4 mg/kg relative to control; type: functional; parameters: scale not given: the % may be the effect or the level left
[7] = tested on: L02; assay: Protection against D-GalN-induced toxicity in L02 cells […] assessed as reduction in cell growth relative to control; type: functional, Homo sapiens; parameters: scale not given: the % may be the effect or the level left
[8] = tested on: L02; assay: Protection against D-GalN-induced toxicity in L02 cells […] assessed as reduction in cell growth at 6.25 microg/ml relative to control; type: functional, Homo sapiens; parameters: scale not given: the % may be the effect or the level left; details: dose 6.25 µg/ml
[9] = Hepatotoxicity in rat assessed as reduction in GPT level at 0.01 mg/mL measured after 48 hrs (reference value: 291 IU/L); type: toxicity; details: in vivo
[10] = Hepatotoxicity in rat assessed as reduction in GPT level at 1.0 mg/mL measured after 48 hrs (reference value: 291 IU/L); type: toxicity; details: in vivo
[11] = tested on: Hepatocyte; assay: Hepatoprotective activity against D-GaIN/TNFalpha -induced cell death in mouse hepatocyte assessed as inhibition at 50 uM relative to control; type: functional; parameters: scale not given: the % may be the effect or the level left
[12] = Hepatoprotective activity against D-Galactosamine-induced toxicity in rat WB-F344 cells assessed as cell survival rate at 10 uM relative to control; type: functional
[13] = Hepatoprotective activity against D-GaIN - induced toxicity in rat WB-F344 cells assessed as inhibition of cell growth relative to control; type: functional; parameters: scale not given: the % may be the effect or the level left

CC1(C)CC[C@]2(CO)CC[C@]3(C)C(=CC[C@@H]4[C@@]5(C)CC[C@H](O)C(C)(C)[C@@H]5CC[C@]43C)[C@@H]2C1 [ERYTHRODIOL]
Activity [1]: 40.2 U/ml

CC1=C2C3=CC[C@@H]4[C@@]5(C)C[C@@H](O)[C@H](O)[C@@](C)(CO)[C@@H]5[C@H](O)C[C@@]4(C)[C@]3(C)CC[C@@]2(C(=O)O[C@@H]2O[C@H](CO)[C@@H](O)[C@H](O)[C@H]2O)CC[C@H]1C [QUADRANOSIDE V]
IC50 [2]: 30.2 µM | Activity [3]: 67.5%

CC(=O)O[C@H]1[C@@H]2O[C@@]3(C(C)(C)O)CC[C@](C)(O3)C2[C@@]2(CO)CC[C@@]34C[C@@]35CC[C@H](O)C(C)(C)C5CC[C@H]4[C@]12C (stereo partly specified)
EC50 [4]: 55.9 µM

CC(=O)O[C@H](C/C=C(/C)C(=O)O)[C@@H](C)[C@H]1CCC2(C)[C@@H]3CC[C@H]4C(C)(C)C(=O)CC[C@@]45C[C@@]35CC[C@]12C (stereo partly specified)
Activity [5]: 30.8%

COC(=O)[C@]12CC[C@@H](C)[C@H](C)[C@H]1C1=CC[C@@H]3[C@@]4(C)C[C@@H](OC(C)=O)C(=O)[C@@](C)(C=O)[C@@H]4CC[C@@]3(C)[C@]1(C)CC2
Activity [6]: 66.4%

CC(C)[C@]1(CO[C@@H]2O[C@H](CO)[C@@H](O)[C@H](O)[C@H]2O)CC[C@@H]([C@H]2[C@H](O)C[C@]3(C)[C@@H]2CC[C@@H]2[C@@]4(C)CC[C@H](O[C@@H]5O[C@H](CO)[C@@H](O)[C@H](O)[C@H]5O[C@@H]5O[C@H](CO)[C@@H](O)[C@H](O)[C@H]5O)C(C)(C)[C@@H]4CC[C@]23C)O1
Activity [7]: 28.2% | Activity [8]: 14.7%

COC(=O)[C@]12CC[C@@H](C)[C@H](C)[C@H]1C1=CC[C@@H]3[C@@]4(C)C[C@@H](OC)C(=O)[C@@](C)(C=O)[C@@H]4CC[C@@]3(C)[C@]1(C)CC2
Activity [6]: 52.3%

CC1(C)CC[C@]2(C(=O)O[C@@H]3O[C@H](CO)[C@@H](O)[C@H](O)[C@H]3O)CC[C@]3(C)C(=CC[C@@H]4[C@@]5(C)CC[C@H](O[C@@H]6O[C@H](CO)[C@@H](O)[C@H](O)[C@H]6O)C(C)(C(=O)O)[C@@H]5CC[C@]43C)[C@@H]2C1 (stereo partly specified)
Activity [9]: 271 IU/L | Activity [10]: 279 IU/L

C=C(C)[C@@H]1CC[C@]2(C(=O)O[C@@H]3O[C@H](CO)[C@@H](O)[C@H](O)[C@H]3O)CC[C@]3(C)[C@H](CC[C@@H]4[C@@]5(C)C[C@@H](O)[C@H](O)C(C)(C)[C@@H]5CC[C@]43C)[C@@H]12
Activity [11]: 37.6%

C[C@@]1(CO)CC[C@]2(C(=O)O[C@@H]3O[C@H](CO[C@@H]4O[C@H](CO)[C@@H](O)[C@H](O)[C@H]4O)[C@@H](O)[C@H](O[C@@H]4O[C@H](CO)[C@@H](O)[C@H](O)[C@H]4O)[C@H]3O)CC[C@]3(C)C(=CC[C@@H]4[C@@]5(C)CC[C@H](O[C@@H]6O[C@H](CO)[C@@H](O)[C@H](O)[C@H]6O)[C@@](C)(C(=O)O)[C@@H]5CC[C@]43C)[C@@H]2C1
Activity [9]: 253 IU/L

CC1(C)CC[C@]2(C(=O)O[C@@H]3O[C@H](CO)[C@@H](O)[C@H](O)[C@H]3O)CC[C@]3(C)C(=CC[C@@H]4[C@@]5(C)C[C@@H](O)[C@@H](O)[C@](C)(CO)[C@@H]5CC[C@]43C)[C@@H]2[C@@H]1O
Activity [12]: 61% | Activity [13]: 61%

C=C(C)[C@@H]1CC[C@]2(C(=O)O[C@@H]3O[C@H](CO)[C@@H](O)[C@H](O)[C@H]3O)CC[C@]3(C)[C@H](CC[C@@H]4[C@@]5(C)C[C@@H](O)[C@H](O)[C@](C)(CO)[C@@H]5CC[C@]43C)[C@@H]12
Activity [11]: 40.9%

— ChEMBL document CHEMBL5260832, “Hepatoprotective natural triterpenoids” (Eur J Med Chem, 2018)
